Measurements taken from ChEMBL document CHEMBL4190257, “Discovery of phenylsulfonyl acetic acid derivatives with improved efficacy and safety as potent free fatty acid receptor 1 agonists for the treatment of type 2 diabetes” (Eur J Med Chem, 2017).

Assays:
[1] = target: T1, Free fatty acid receptor 1 (Homo sapiens, UniProt O14842); assay: Agonist activity at human FFA1 receptor expressed in CHO cells assessed as increase in intracellular calcium flux by Fluo 4AM dye-based FLIPR assay; format: functional, cell-based
[2] = target: T1, Free fatty acid receptor 1; assay: Agonist activity at human FFA1 receptor expressed in CHO cells assessed as increase in intracellular calcium flux at 10 uM by Fluo 4AM dye-based FLIPR assay relative to TAK-875; format: functional, cell-based
[3] = Octanol/phosphate buffer distribution coefficient, log D of the compound at 100 uM at pH 7.4 after 24 hrs by shake flask method; format: physicochemical

T1 sequence (O14842 whole entry): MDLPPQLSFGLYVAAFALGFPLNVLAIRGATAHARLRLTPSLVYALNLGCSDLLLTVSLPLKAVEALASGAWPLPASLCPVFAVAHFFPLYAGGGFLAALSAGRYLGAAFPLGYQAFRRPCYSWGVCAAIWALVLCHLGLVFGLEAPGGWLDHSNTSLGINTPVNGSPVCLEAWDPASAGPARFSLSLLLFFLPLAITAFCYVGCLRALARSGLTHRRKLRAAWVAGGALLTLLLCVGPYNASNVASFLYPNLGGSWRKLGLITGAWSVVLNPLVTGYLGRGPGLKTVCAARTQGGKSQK

EC50 [1] | Efficacy [2] | logD at 24 h, 100 µM [3] | Compound
251 nM | 85% |  | Cc1nc(-c2cccc(Cl)c2)sc1COc1ccc(S(=O)(=O)CC(=O)O)cc1
214 nM | 81% |  | Cc1noc(C)c1-c1cc(COc2ccc(S(=O)(=O)CC(=O)O)cc2)ccc1Cl
550 nM | 75% |  | Cc1nc(-c2ccccc2F)sc1COc1ccc(S(=O)(=O)CC(=O)O)cc1
234 nM | 84% |  | Cc1noc(C)c1-c1ccc(Cl)c(COc2ccc(S(=O)(=O)CC(=O)O)cc2)c1
331 nM | 91% |  | Cc1nc(-c2ccccc2)sc1COc1ccc(S(=O)(=O)CC(=O)O)cc1
257 nM | 97% |  | O=C(O)CS(=O)(=O)c1ccc(OCc2cccc(-c3ccccc3F)c2)cc1
191 nM | 92% |  | Cc1nc(-c2ccc(F)cc2)sc1COc1ccc(S(=O)(=O)CC(=O)O)cc1
269 nM | 82% |  | Cc1noc(C)c1-c1cccc(COc2ccc(S(=O)(=O)CC(=O)O)cc2)c1
214 nM | 82% |  | Cc1cccc(-c2nc(C)c(COc3ccc(S(=O)(=O)CC(=O)O)cc3)s2)c1
195 nM | 96% |  | COc1ccccc1-c1cccc(COc2ccc(S(=O)(=O)CC(=O)O)cc2)c1
427 nM | 73% |  | Cc1ccc(-c2c(C)noc2C)cc1COc1ccc(S(=O)(=O)CC(=O)O)cc1
275 nM | 84% |  | Cc1nc(-c2cccc(F)c2)sc1COc1ccc(S(=O)(=O)CC(=O)O)cc1
129 nM | 85% |  | Cc1ccc(C)n1-c1cccc(COc2ccc(S(=O)(=O)CC(=O)O)cc2)c1

The remaining lines, values behind:

Compound | EC50 [1] | Efficacy [2] | logD at 24 h, 100 µM [3]
CCC(C(=O)O)S(=O)(=O)c1ccc(OCc2cccc(-c3c(C)cc(OC)cc3C)c2)cc1 (stereo not drawn) | > 1000 nM |  | 
COc1cc(C)c(-c2cccc(COc3ccc(S(=O)(=O)C(C)C(=O)O)cc3)c2)c(C)c1 (stereo not drawn) | > 1000 nM |  | 
COc1cc(C)c(-c2cccc(COc3ccc(S(=O)(=O)C(C)(C)C(=O)O)cc3)c2)c(C)c1 | > 1000 nM |  | 
COc1cc(C)c(-c2cccc(COc3ccc4c(c3)SCC4CC(=O)O)c2)c(C)c1 (stereo not drawn) | 123 nM | 98% | 
Cc1ccccc1-c1ccc(COc2cccc(S(=O)(=O)CC(=O)O)c2)cc1 | > 1000 nM |  | 
COc1cc(C)c(-c2cccc(COc3ccc(S(=O)(=O)C4(C(=O)O)CC4)cc3)c2)c(C)c1 | > 1000 nM |  | 
CC(C)c1ccccc1-c1cccc(COc2ccc(S(=O)(=O)CC(=O)O)cc2)c1 | 74.1 nM | 101% | 3.18
Cc1cccc(C)c1-c1cccc(COc2ccc(SCC(=O)O)cc2)c1 | 195 nM | 95% | 3.82
CO/N=C(\COc1ccc(COc2ccc(S(=O)(=O)CC(=O)O)cc2)cc1)c1ccccc1 | 178 nM | 92% | 
COc1cc(C)c(-c2cccc(COc3ccc4c(c3)C(=O)CC4CC(=O)O)c2)c(C)c1 (stereo not drawn) | 234 nM | 87% | 
O=C(O)CS(=O)(=O)c1ccc(OCc2cccc(Oc3ccccc3)c2)cc1 | 97.7 nM | 101% | 
N#Cc1ccccc1-c1cccc(COc2ccc(S(=O)(=O)CC(=O)O)cc2)c1 | 457 nM | 78% | 
Cc1cc(OCCCS(C)(=O)=O)cc(C)c1-c1cccc(COc2ccc(S(=O)(=O)CC(=O)O)cc2)c1 | 170 nM | 83% | 
COc1cc(C)c(-c2cccc(COc3ccc4c(c3)C(O)CC4CC(=O)O)c2)c(C)c1 (stereo not drawn) | 550 nM | 83% | 
COc1cc(C)c(-c2cccc(COc3ccc4c(c3)S(=O)(=O)CC4CC(=O)O)c2)c(C)c1 (stereo not drawn) | > 1000 nM |  | 
O=C(O)CS(=O)(=O)c1cccc(OCc2ccc(-c3ccccc3)cc2)c1 | > 1000 nM |  | 
CO/N=C1\CC(CC(=O)O)c2ccc(OCc3cccc(-c4c(C)cc(OC)cc4C)c3)cc21 (stereo not drawn) | > 1000 nM |  | 
COCCOc1cc(C)c(-c2cccc(COc3ccc(S(=O)(=O)CC(=O)O)cc3)c2)c(C)c1 | 126 nM | 95% | 
Cc1noc(C)c1-c1cccc(COc2ccc(S(=O)(=O)CC(=O)O)cc2)c1C | 363 nM | 77% | 
